Reference: patent EP4685136A1, “AMINO LIPID, AND LIPID NANOPARTICLES AND USE THEREOF” (Shenzhen MagicRNA Biotechnology Co., Ltd., priority 2023, dated 2024)

Columns and labels:
[1] = Particle size and PDI of LNPs with different phospholipid lipid contents (Malvern particle size analyzer); assay type: physicochemical; conditions: Luc-mRNA LNPs, molar ratios of Table 4 (B1-B7); controls with 10 % phospholipid lipid
Text: (§1) Preparation of lipid nanoparticles: the ionizable lipid (E12LA6B6O3) content was kept at 42.5%, the PEGylated lipid DMG-PEG2000 content was kept at 1.5%, and the phospholipid lipid ratio was adjusted to 15, 12.5, 10, 7.5, 5.0, 2.5, and 0. The increased or decreased molar ratio during adjustment of the phospholipid lipid molar ratio was applied to the cholesterol ratio to verify its effect on the quality control evaluation of lipid nanoparticles and on the in vivo delivery performance of luciferase mRNA. ALC-0315 and SM-102 were used as positive controls. Table 4: Component ratios under different phospholipids
(§2) E12LA6B6O3, phospholipid lipid (DSPC), cholesterol, and PEGylated lipid DMG-PEG2000 were mixed and dissolved in anhydrous ethanol according to the molar ratio in Table 4. The obtained ethanol solution and citric acid buffer (50 mM, pH = 4.0) dissolved with Luc-mRNA (TriLink) were mixed in a microfluidic chip at a volume ratio of 1:3 using a microfluidic preparation system to prepare a crude solution of lipid nanoparticles, which was then dialyzed in 1X PBS at 4°C for 6 h using a dialysis cassette (Fisher, MWCO 20,000). The product was filtered through a 0.22 µm microporous filter membrane before use. The base molar ratio of the amino lipid compound to the luciferase mRNA (Luc mRNA) is about 6.5:1. The quality control of lipid nanoparticles was tested on a Malvern particle size analyzer and an microplate reader, and SM-102 and ALC-0315 (both purchased from AVT (Shanghai) Pharmaceutical Technology Co., Ltd) were added as a control group.

[2] = Encapsulation efficiency of LNPs with different phospholipid lipid contents (microplate reader); assay type: physicochemical; conditions: Luc-mRNA LNPs, molar ratios of Table 4 (B1-B7); controls with 10 % phospholipid lipid
Text: as §1
as §2, with “The product was filtered through a 0.22 µm microporous filter membrane before use. The base molar ratio of the amino lipid compound to the luciferase mRNA (Luc mRNA) is about 6.5:1.” left out

[3] = system: Balb/C mice; assay: In vivo delivery of luciferase mRNA by tail vein injection of LNPs with different DSPC contents (IVIS Spectrum); conditions: total fluorescence intensity, 0.1 mg/kg mRNA, 6 hours
Text: as §1
E12LA6B6O3, phospholipid lipid (DSPC), cholesterol, and PEGylated lipid DMG-PEG2000 were mixed and dissolved in anhydrous ethanol according to the molar ratio in Table 4. […] The quality control of lipid nanoparticles was tested on a Malvern particle size analyzer and an microplate reader, and SM-102 and ALC-0315 (both purchased from AVT (Shanghai) Pharmaceutical Technology Co., Ltd) were added as a control group. […]
In vivo delivery: Three Balb/C mice were randomly selected from each group and injected with lipid nanoparticle solution at a dose of 0.1 mg/kg mRNA via tail vein injection. […] After 10 minutes, the mice were placed under the in vivo imaging system (IVIS Spectrum) to observe the total fluorescence intensity of each mouse and take photos for recording. […]

[4] = Particle size and PDI of Luc-mRNA lipid nanoparticles (Nano-ZS ZEN3600, Malvern); assay type: physicochemical; conditions: LNP of amino lipid:DSPC:cholesterol:DMG-PEG2000 47.5:10:41:1.5 with Luc-mRNA; lipid to mRNA mass ratio about 40:1
Experimental: (§3) The amino lipid compound of the present invention (or DLin-MC3 or SM-102 (both purchased from AVT (Shanghai) Pharmaceutical Technology Co., Ltd.)), phospholipid lipid (DSPC), cholesterol, and PEGylated lipid (DMG-PEG2000) were mixed and dissolved in anhydrous ethanol at a molar ratio of 47.5:10:41:1.5. The resulting ethanol solution and citric acid buffer (50 mM, pH = 4.0) dissolved with Luc-mRNA (TriLink) were mixed in a microfluidic chip at a volume ratio of 1:3 using a microfluidic preparation system to prepare a crude solution of lipid nanoparticles, which was then dialyzed in 1X PBS at 4°C for 6 h using a dialysis cassette (Fisher, MWCO 20,000). The product was filtered through a 0.22 µm microporous filter membrane before use. The mass ratio of the amino lipid compound to luciferase mRNA (Luc mRNA) was about 40:1.
The particle size and PDI (polydispersity index) of the prepared lipid nanoparticles were measured by Nano-ZSZEN3600 (Malvern). 20 µL of lipid nanoparticle (LNP) solution was taken for particle size measurement, and cycled three times with each cycle for 30 s.

[5] = Encapsulation efficiency of Luc-mRNA lipid nanoparticles (Quant-iT RiboGreen RNA Kit); assay type: physicochemical; conditions: LNP of amino lipid:DSPC:cholesterol:DMG-PEG2000 47.5:10:41:1.5 with Luc-mRNA; lipid to mRNA mass ratio about 40:1
Experimental: as §3
The encapsulation efficiency was determined according to the standard procedure of the Quant-iT RiboGreen RNA Kit. Table 1 Characterization data of LNPs prepared using representative amino lipid compounds

[6] = system: primary BMDC cells; assay: Transfection of Luc mRNA lipid nanoparticles on primary BMDC cells (ONE-Glo luciferase readout); assay type: cell-based, C57BL/6 mice; conditions: expression intensity of Luc mRNA on BMDCs; 10 µL LNP per well, 20,000 cells per well, 12 hours
Experimental: (§4) Animal preparation: 6-week-old female C57BL/6 mice weighing about 20 g were selected and raised in an SPF-grade feeding room. Animal experiments were conducted strictly in accordance with the guidelines of the National Institutes of Health and animal ethics requirements.
Cell acquisition: C57BL/6 mice were sacrificed by cervical dislocation and immersed in 75% alcohol for 5 minutes for disinfection. The thigh and tibia of the mice were dissected and the attached muscles were removed to expose the bone. The bone marrow in the tibia was blown out with a 1 mL syringe filled with PBS. The obtained bone marrow was dispersed by blowing and filtered through a 50 µm filter mesh to remove impurities. Red blood cell lysis solution (3-4 mL) was added to the obtained filtrate and allowed to stand for 5 minutes. Then, the supernatant was removed by centrifugation at 800 g for 5 minutes. The obtained cells were placed in 1640 culture medium (containing 10% fetal bovine serum, 20 ng/mL GMCSF, 10 ng/mL IL4) for being resuspended, and inoculated into 6-well plates at a density of 100,000 cells/mL of culture medium. The plates were placed in a cell culture incubator containing 5% CO2 at 37°C, and the medium was half-changed every 2 days. On the seventh day, the suspended cells and loosely adherent cells were collected and inoculated into 96-well all-white ELISA plates at a density of 20,000 cells per well, with a culture medium volume of 100 µL.
Cell transfection: the lipid nanoparticles encapsulating luciferase mRNA were added to a 96-well all-white ELISA plate with spreaded primary cells, and the volume of mRNA lipid nanoparticles added to each well was controlled to be 10 µL. Then, the plate was placed in an incubator with 5% CO2 concentration at 37°C for 12 hours.
Transfection efficiency detection: 20 µL of substrate ONE-Glo™ Luciferase was added to each well of a 96-well all-white ELISA plate, and the assay was performed using a multifunctional microplate reader (Biorek SynergyH1) after 1 min. The expression intensity of Luc mRNA transfected on BMDCs by lipid nanoparticles (LNPs) composed of representative amino lipid compounds is shown in Table 2, with DLin-MC3 and SM0102 as controls. Table 2 Expression intensity of transfection of representative amino lipid compounds on BMDCs

[7] = system: C57BL/6 mice; assay: In vivo delivery of luciferase mRNA by intramuscular injection of LNPs (IVIS imaging); conditions: total fluorescence intensity, Luc mRNA LNP, 0.5 mg/kg mRNA, 12 hours
Experimental: Preparation of lipid nanoparticles: same as Example 36.
as §4
In vivo delivery: Five C57BL/6 mice were randomly selected from each group and injected with lipid nanoparticle solution at a dose of 0.5 mg/kg mRNA by intramuscular injection. Twelve hours later, 200 µL of 10 mg/mL D-luciferin potassium salt was injected into the peritoneal cavity of each mouse. Five minutes later, the mice were placed under an in vivo imaging system (IVIS-200, Xenogen) to observe the total fluorescence intensity of each mouse and take photos for recording. The expression intensity of Luc mRNA delivered by intramuscular injection of LNPs composed of representative amino lipid compounds is shown in Table 3, with DLin-MC3 and SM-102 as controls. Table 3 Expression intensity of Luc mRNA delivered by intramuscular injection of LNPs composed of representative amino lipids

[8] = system: B16-OVA melanoma cells; assay: Tumor therapeutic effect of OVA mRNA LNP vaccine in B16-OVA melanoma-bearing mice; assay type: in vivo, C57BL/6 mice; conditions: for mice achieved complete remission: two intramuscular injections 7 days apart of LNP containing 1 µg OVA-mRNA (Figure 3); for tumor growth rate: two intramuscular injections 7 days apart of LNP containing 1 µg OVA-mRNA, compared with MC3 group (Figure 2)
Experimental: Preparation method: The amino lipid compound of the present invention was mixed with DSPC, cholesterol and DMG-PEG2000 at a molar ratio of 47.5:10:41:1.5 and dissolved in anhydrous ethanol. The obtained ethanol solution and citric acid buffer (50 mM, pH = 4.0) dissolved with OVA-mRNA were mixed in a microfluidic chip at a volume ratio of 1:3 using a microfluidic preparation system to prepare lipid nanoparticles, and then dialyzed in 1X PBS at 4°C for 6 h using a dialysis cassette (Fisher, MWCO 20,000) and filtered with a 0.22 µm microporous filter membrane before use. The mass ratio of the amino lipid compound to ovalbumin mRNA (OVA mRNA) was about 40: 1.
Animal preparation: Female C57BL/6 mice aged 5-6 weeks, weighing about 18-20 g were selected and kept in an SPF-grade feeding room. Animal experiments were conducted strictly in accordance with the guidelines of the National Institutes of Health and animal ethics requirements.
In vivo delivery: B16-OVA melanoma cells (1.5 × 10^5) were injected subcutaneously into the lateral thigh of mice. Vaccination was started when the tumor size reached 50 mm^3(approximately day 6 or 7 after tumor inoculation). Animals were immunized twice by intramuscular injection of LNP formulation containing 1 µg of OVA-mRNA, with an interval of the second injection from the first injection being 7 days. Tumor growth was measured three times per week using a digital caliper and calculated as 0.5 × length × width × width. Mice were euthanized when tumor volume reached 1500 mm^3.

SMILES	PDI [1]	Particle size (nm) [1]	Encapsulation efficiency (%) [2]	Fluorescence intensity [3]	Average particle size (nm) [4]	PDI [4]	Encapsulation efficiency (%) [5]	Luminescence intensity [6]	Fluorescence intensity [7]	mice achieved complete remission [8]	tumor growth rate [8]
CCCCCCCCC(CCCCCC)C(=O)OCCCCCCN(CCCCO)CCCCCCOC(=O)C(CCCCCC)CCCCCCCC (stereo not drawn) [ALC-0315]	0.08	71.3 nm	94.1%	1.26E+10							
CCCCC/C=C\C/C=C\CCCCCCCCC(CCCCCCCC/C=C\C/C=C\CCCCC)OC(=O)CCCN(C)C [DLin-MC3, reference compound]					72 nm	0.12	89.74%	4.1E+04	7.6 E+08		
CCCCCCCC(=O)OCC(CCCCCC)OC(=O)CCCCCN(CCCO)CCCCCC(=O)OC(CCCCCC)COC(=O)CCCCCCC (stereo not drawn) [E8LA8B6O3]					84 nm	0.07	90.03%	1.3E+05	7.7E+08		
CCCCCCCCCC(=O)OCC(CCCCCC)OC(=O)CCCCCN(CCCO)CCCCCC(=O)OC(CCCCCC)COC(=O)CCCCCCCCC (stereo not drawn) [E8LA10B6O3]					73 nm	0.09	93.95%	5.2E+04	1.6E+09		
CCCCCCCCC(COC(=O)CCCCC)OC(=O)CCCCCN(CCCO)CCCCCC(=O)OC(CCCCCCCC)COC(=O)CCCCC (stereo not drawn) [E10LA6B6O3]					92 nm	0.07	95.41%	1.5E+05	1.4E+09	80%	significantly slower than that of the MC3 group
CCCCCCCCCC(=O)OCC(CCCCCCCC)OC(=O)CCCCCN(CCCO)CCCCCC(=O)OC(CCCCCCCC)COC(=O)CCCCCCCCC (stereo not drawn) [E10LA10B6O3]					70 nm	0.06	95.90%	6.9E+04	1.2E+09		
CCCCCCCCCCC(COC(=O)CCCCC)OC(=O)CCCCCN(CCCCCC(=O)OC(CCCCCCCCCC)COC(=O)CCCCC)CCCOC(=O)CCCCCCN(C)C (stereo not drawn) [E12LA6B6O3A6]					103 nm	0.07	98.5%		1.5E+09		
CCCCCCCCCCC(COC(=O)CCCCC)OC(=O)CCCCCN(CCCO)CCCCCC(=O)OC(CCCCCCCCCC)COC(=O)CCCCC (stereo not drawn) [E12LA6B6O3]					75 nm	0.08	98.26%		2.2E+09	100%	significantly slower than that of the MC3 group
CCCCCCCCCCC(COC(=O)CCCCCCC)OC(=O)CCCCCN(CCCO)CCCCCC(=O)OC(CCCCCCCCCC)COC(=O)CCCCCCC (stereo not drawn) [E12LA8B6O3]					73 nm	0.10	94.90%	7.6E+04	8.2E+08		
CCCCCCCCCCC(CCOC(=O)CCCCC)OC(=O)CCCCCN(CCCO)CCCCCC(=O)OC(CCCCCCCCCC)CCOC(=O)CCCCC (stereo not drawn) [K3LA6B6O3]					129 nm	0.08	98.8%	5.4E+05	2.0E+09		
CCCCCCCCCCCOC(=O)CCCCCN(CCO)CCCCCCCC(=O)OC(CCCCCCCC)CCCCCCCC [SM-102, reference compound]	0.09	91.9 nm	96.4%	9.86E+9	79 nm	0.10	94.32%	1.0E+05	1.4E+09		
